The values below come from US20220380319A1 (Bial - R&D Investments, S.A., priority 2019, published 2022).

The solubility is the concentration that dissolves in the medium under given conditions. What is called IC50 is the concentration that inhibits the measured activity by half.

Converted amounts (≈) assume the structure as drawn.

The nature of data set [1]: Compound solubility in water.
Another data set concerns the target T1, acid ceramidase (Homo sapiens, UniProt Q13510).
T1 construct: Cell lysates overexpressing acid ceramidase were used as the enzyme source; expressed in transfected cells
T1 sequence (Q13510 22-395): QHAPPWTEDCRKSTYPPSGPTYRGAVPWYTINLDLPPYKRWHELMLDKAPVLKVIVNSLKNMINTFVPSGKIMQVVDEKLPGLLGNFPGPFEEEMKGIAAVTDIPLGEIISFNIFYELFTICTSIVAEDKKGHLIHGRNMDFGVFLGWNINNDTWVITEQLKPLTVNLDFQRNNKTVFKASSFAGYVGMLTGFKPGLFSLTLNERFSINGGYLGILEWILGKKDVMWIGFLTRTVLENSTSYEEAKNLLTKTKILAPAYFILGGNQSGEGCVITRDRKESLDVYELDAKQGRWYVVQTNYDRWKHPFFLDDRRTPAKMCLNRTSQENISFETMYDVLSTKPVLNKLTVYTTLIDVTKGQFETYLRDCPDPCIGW
The data set is described as follows: Acid ceramidase inhibition, biochemical fluorescent assay with cell lysates overexpressing acid ceramidase, substrate Rbm14-12. The note with it: substrate Rbm14-12 6.3 μM, pH 4.5, 1 hr preincubation at RT. Summed up:
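Lysate of cells overexpressing acid ceramidase (10 μg protein) preincubated with compound dose series 1 hr at RT in 25 mM NaAC, 100 mM NaCl, pH 4.5, then reacted 1 hr with 6.3 μM Rbm14-12. Stopped with NaIO4/glycine buffer pH 10.6, fluorescence ex360/em446; IC50 by four-parameter fit.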

The molecule `O=C(NCCOc1ccccc1)n1cnc2c(C(F)(F)F)cccc21` [Example 72, N-(2-Phenoxyethyl)-4-(trifluoromethyl)-1H-benzo[d]imidazole-1-carboxamide] had a solubility in data set [1] of 2 µg/mL (≈ 5.73 µM). This molecule registered an IC50 on acid ceramidase below 200 nM.

With `O=C(NCCOc1ccccc1)n1cnc2c(F)cccc21` [Example 73, 4-Fluoro-N-(2-phenoxyethyl)-1H-benzo[d]imidazole-1-carboxamide], the concentration in solution in data set [1] (solubility) was 2.7 µg/mL (≈ 9.02 µM). At acid ceramidase, this molecule registered a half-inhibitory concentration (IC50) below 200 nM.

In data set [1], `N#Cc1cccc2c1ncn2C(=O)NCCOc1ccccc1` [Example 74, 4-Cyano-N-(2-phenoxyethyl)-1H-benzo[d]imidazole-1-carboxamide] returned a solubility of 5.9 µg/mL (≈ 19.3 µM). Moreover, the IC50 against acid ceramidase was below 200 nM.

Regarding `COc1c(-c2cncnc2)ccc2c1ncn2C(=O)NCC(C)C` [Example 75, N-isoButyl-4-methoxy-5-(pyrimidin-5-yl)-1H-benzo[d]imidazole-1-carboxamide], the concentration in solution in data set [1] (solubility) came to 27 µg/mL (≈ 83 µM). The molecule further yielded an IC50 on acid ceramidase of 200 to 1000 nM.

In turn, `CC(C)CNC(=O)n1cnc2c(C(F)(F)F)c(-c3cncnc3)ccc21` [Example 76, N-iso-Butyl-5-(pyrimidin-5-yl)-4-(trifluoromethyl)-1H-benzo[d]imidazole-1-carboxamide] came in with a solubility in data set [1] of 10 µg/mL (≈ 27.5 µM). This molecule yielded a 50% inhibitory concentration (IC50) against acid ceramidase below 200 nM.

With `CC(C)CNC(=O)n1cnc2cc(-c3cncnc3)c(C(F)(F)F)cc21` [Example 77a, N-iso-Butyl-5-(pyrimidin-5-yl)-6-(trifluoromethyl)-1H-benzo[d]imidazole-1-carboxamide], the solubility in data set [1] turned out to be 14.5 µg/mL (≈ 39.9 µM). At acid ceramidase, this molecule registered an IC50 below 200 nM.

`CC(C)CNC(=O)n1cnc2cc(C(F)(F)F)c(-c3cncnc3)cc21` [Example 77b, N-iso-butyl-6-(pyrimidin-5-yl)-5-(trifluoromethyl)-1H-benzo[d]imidazole-1-carboxamide]: the solubility in data set [1] stood at 7.4 µg/mL (≈ 20.4 µM). The same molecule showed an IC50 on acid ceramidase below 200 nM.

The molecule `CN1CCN(CCNC(=O)n2cnc3cc(C(F)(F)F)ccc32)CC1` [Example 78, N-(2-(4-Methylpiperazin-1-yl)ethyl)-5-(trifluoromethyl)-1H-benzo[d]imidazole-1-carboxamide] yielded a solubility in data set [1] of 32.7 µg/mL (≈ 92 µM). The molecule also came in with an IC50 against acid ceramidase above 1000 nM.

Take `COc1cc2c(cc1-c1cncnc1)ncn2C(=O)NCC(C)C` [Example 79a, N-iso-Butyl-6-methoxy-5-(pyrimidin-5-yl)-1H-benzo[d]imidazole-1-carboxamide]: the concentration in solution in data set [1] (solubility) was 22.2 µg/mL (≈ 68.2 µM). On acid ceramidase, this molecule registered an IC50 of 200 to 1000 nM.

Take `COc1cc2ncn(C(=O)NCC(C)C)c2cc1-c1cncnc1` [Example 79b, N-iso-butyl-5-methoxy-6-(pyrimidin-5-yl)-1H-benzo[d]imidazole-1-carboxamide]: the concentration in solution in data set [1] (solubility) was 26.5 µg/mL (≈ 81.4 µM). This molecule also showed an IC50 on acid ceramidase below 200 nM.

Take `O=C(NCCCC(F)(F)F)n1cnc2ccccc21` [Example 80, N-(4,4,4-Trifluorobutyl)-1H-benzo[d]imidazole-1-carboxamide]: the solubility in data set [1] came to 21.1 µg/mL (≈ 77.8 µM). Moreover, at acid ceramidase, the IC50 is below 200 nM.

With `COc1nc2ccc(-c3cncnc3)cc2n1C(=O)NCC(C)C` [Example 81a, N-iso-Butyl-2-methoxy-6-(pyrimidin-5-yl)-1H-benzo[d]imidazole-1-carboxamide], the solubility in data set [1] worked out at 22.8 µg/mL (≈ 70.1 µM). The IC50 against acid ceramidase is 200 to 1000 nM.

On to `COc1nc2cc(-c3cncnc3)ccc2n1C(=O)NCC(C)C` [Example 81b, N-iso-butyl-2-methoxy-5-(pyrimidin-5-yl)-1H-benzo[d]imidazole-1-carboxamide], for which the solubility in data set [1] was 27 µg/mL (≈ 83 µM). The IC50 at acid ceramidase fell in the range of 200 to 1000 nM.

As to `CCCCNC(=O)n1c(OC)nc2ccc(-c3cncnc3)cc21` [Example 82a, N-Butyl-2-methoxy-6-(pyrimidin-5-yl)-1H-benzo[d]imidazole-1-carboxamide], the solubility in data set [1] was 21.8 µg/mL (≈ 67 µM). At acid ceramidase, this molecule displayed an IC50 of 200 to 1000 nM.

Take `CCCCNC(=O)n1c(OC)nc2cc(-c3cncnc3)ccc21` [Example 82b, N-Butyl-2-methoxy-5-(pyrimidin-5-yl)-1H-benzo[d]imidazole-1-carboxamide]: the solubility in data set [1] came out at 24.5 µg/mL (≈ 75.3 µM). This molecule also gave an IC50 on acid ceramidase of 200 to 1000 nM.

Turning to `COc1nc2cc(-c3cccnc3)cnc2n1C(=O)NCC(C)C` [Example 83, N-iso-Butyl-2-methoxy-6-(pyridin-3-yl)-3H-imidazo[4,5-b]pyridine-3-carboxamide], in data set [1], the solubility came to 16.9 µg/mL (≈ 51.9 µM). On acid ceramidase, this molecule yielded an IC50 of 200 to 1000 nM.

In the case of `CCCCNC(=O)n1c(=O)n(C)c2nc(-c3cncnc3)ccc21` [Example 84, N-Butyl-3-methyl-2-oxo-5-(pyrimidin-5-yl)-2,3-dihydro-1H-imidazo[4,5-b]pyridine-1-carboxamide], the concentration in solution in data set [1] (solubility) came to 0.9 µg/mL (≈ 2.76 µM). Also, the IC50 on acid ceramidase is 200 to 1000 nM.

`CCCCNC(=O)n1c(OC)nc2ccc(-c3cncnc3)nc21` [Example 85a, N-Butyl-2-methoxy-5-(pyrimidin-5-yl)-3H-imidazo[4,5-b]pyridine-3-carboxamide] had a solubility in data set [1] of 40 µg/mL (≈ 123 µM). On acid ceramidase, the IC50 is below 200 nM.

In data set [1], `CCCCNC(=O)n1c(OC)nc2nc(-c3cncnc3)ccc21` [Example 85b, N-butyl-2-methoxy-5-(pyrimidin-5-yl)-1H-imidazo[4,5-b]pyridine-1-carboxamide] registered a solubility of 54 µg/mL (≈ 165 µM). On acid ceramidase, this molecule displayed an IC50 below 200 nM.

On to `CN1CCC(Oc2cccc3c2ncn3C(=O)NCCc2ccccc2)CC1` [Example 86, 4-((1-Methylpiperidin-4-yl)oxy)-N-phenethyl-1H-benzo[d]imidazole-1-carboxamide], for which the solubility in data set [1] was found to be 26.5 µg/mL (≈ 70 µM). Besides, the IC50 at acid ceramidase was below 200 nM.

Consider `Cn1c(=O)n(C(=O)NCCc2ccccc2)c2cccnc21` [Example 87, 3-Methyl-2-oxo-N-phenethyl-2,3-dihydro-1H-imidazo[4,5-b]pyridine-1-carboxamide], for which the solubility in data set [1] is 14.7 µg/mL (≈ 49.6 µM). In addition, the concentration for half-maximal inhibition (IC50) against acid ceramidase is above 1000 nM.

As to `Cn1c(=O)n(C(=O)NCCc2ccccc2)c2ncccc21` [Example 88, 1-Methyl-2-oxo-N-phenethyl-1,2-dihydro-3H-imidazo[4,5-b]pyridine-3-carboxamide], in data set [1], the solubility turned out to be 26.4 µg/mL (≈ 89.1 µM). This molecule came in with an IC50 on acid ceramidase below 200 nM.

Consider `CN(C)CCOc1nc2ccccc2n1C(=O)NCCc1ccccc1` [Example 89, 2-(2-(Dimethylamino)ethoxy)-N-phenethyl-1H-benzo[d]imidazole-1-carboxamide], for which the solubility in data set [1] was 27.6 µg/mL (≈ 78.3 µM). The IC50 against acid ceramidase was below 200 nM.

With `CC(C)Oc1cccc2c1ncn2C(=O)NCCc1ccccc1` [Example 90, 4-iso-Propoxy-N-phenethyl-1H-benzo[d]imidazole-1-carboxamide], the concentration in solution in data set [1] (solubility) came to 0.3 µg/mL (≈ 0.928 µM). The same molecule had an IC50 on acid ceramidase below 200 nM.

On to `CCOc1nc2ncccc2n1C(=O)NCCCc1ccccc1` [Example 91a, 2-Ethoxy-N-(3-phenylpropyl)-1H-imidazo[4,5-b]pyridine-1-carboxamide], for which, in data set [1], the solubility was found to be 7 µg/mL (≈ 21.6 µM). Also, the IC50 on acid ceramidase is below 200 nM.

`CCOc1nc2cccnc2n1C(=O)NCCCc1ccccc1` [Example 91b, 2-ethoxy-N-(3-phenylpropyl)-3H-imidazo[4,5-b]pyridine-3-carboxamide]: the solubility in data set [1] came to 21.1 µg/mL (≈ 65 µM). The molecule further returned an IC50 at acid ceramidase below 200 nM.

Turning to `CCOc1nc2c(F)cccc2n1C(=O)NCCc1ccccc1` [Example 92, 2-Ethoxy-4-fluoro-N-phenethyl-1H-benzo[d]imidazole-1-carboxamide], the solubility in data set [1] was 1.2 µg/mL (≈ 3.67 µM). The molecule also yielded an IC50 at acid ceramidase below 200 nM.

As to `CCOc1nc2c(Cl)cccc2n1C(=O)NCCc1ccccc1` [Example 93, 4-Chloro-2-ethoxy-N-phenethyl-1H-benzo[d]imidazole-1-carboxamide], the solubility in data set [1] came to 0.05 µg/mL (≈ 0.145 µM). For the same molecule, on acid ceramidase, the IC50 is below 200 nM.

In data set [1], `CCCCNC(=O)n1c(OCC)nc2c(OC)cccc21` [Example 94, N-Butyl-2-ethoxy-4-methoxy-1H-benzo[d]imidazole-1-carboxamide] returned a solubility of 11.2 µg/mL (≈ 38.4 µM). The same molecule displayed an IC50 against acid ceramidase of 200 to 1000 nM.

With `CCCCNC(=O)n1c(OC(C)C)nc2ccccc21` [Example 96, N-Butyl-2-isopropoxy-1H-benzo[d]imidazole-1-carboxamide], in data set [1], the concentration in solution (solubility) came to 10.3 µg/mL (≈ 37.4 µM). The IC50 against acid ceramidase is above 1000 nM.

Turning to `CCCCNC(=O)n1c(OCC)nc2ccccc21` [Example 97, N-Butyl-2-ethoxy-1H-benzo[d]imidazole-1-carboxamide], the concentration in solution in data set [1] (solubility) was 10.9 µg/mL (≈ 41.7 µM). Also, the IC50 against acid ceramidase lay in the range of 200 to 1000 nM.

Consider `CCCCNC(=O)n1c(OC(C)C)nc2c(OC)cccc21` [Example 97a], for which the concentration in solution in data set [1] (solubility) came to 18 µg/mL (≈ 58.9 µM). Besides, the IC50 at acid ceramidase was 200 to 1000 nM.

`COc1cccc2c1ncn2C(=O)NCCC(C)C` [Example 98, N-iso-Pentyl-4-methoxy-1H-benzo[d]imidazole-1-carboxamide]: the solubility in data set [1] was determined as 16 µg/mL (≈ 61.2 µM). The molecule also yielded an IC50 at acid ceramidase below 200 nM.

Regarding `CCCCNC(=O)n1c(OC)nc2c(OC)cccc21` [Example 100, N-Butyl-2,4-dimethoxy-1H-benzo[d]imidazole-1-carboxamide], the solubility in data set [1] came to 28 µg/mL (≈ 101 µM). The molecule also returned an IC50 at acid ceramidase of 200 to 1000 nM.

Take `CCCCNC(=O)n1cnc2ccc(N3CCC(N4CCOCC4)CC3)cc21` [Example 101a, N-Butyl-6-(4-morpholinopiperidin-1-yl)-1H-benzo[d]imidazole-1-carboxamide]: in data set [1], the solubility turned out to be 26.7 µg/mL (≈ 69.3 µM). The IC50 against acid ceramidase is below 200 nM.
